From ChEMBL document CHEMBL3507680, “University of Dundee, Gates Library screen for HepG2 cell viability”

Experiment: Human HepG2 cell viability assay in 384 well format
Type: toxicity, cell-based
Set-up: dose 125 nL, time 70.5 hour; cytotoxicity at 70.5 h: concentration not given beside the values
Conditions: HepG2 cells, read-out: Inhibition

CC(C)c1cccc(NC(=O)N2CC(N(C)C)C2)c1
cytotoxicity at 70.5 h: -0.462%

NC(=O)NC(=O)CCn1ccc(-c2ccccc2)n1
cytotoxicity at 70.5 h: 16%

CN(C)S(=O)(=O)N1CCC(OCCCc2ccccc2)C1 (stereo not given)
cytotoxicity at 70.5 h: -0.922%

CCS(=O)(=O)N1CCC(OCCCc2ccccc2)C1 (stereo not given)
cytotoxicity at 70.5 h: -3.57%

Cc1cnn(CC2CCCN2c2ncnc3c2CCC3)c1 (stereo not given)
cytotoxicity at 70.5 h: 13.3%

O=C(C1CCN(c2ccnc3ccc(Br)cc23)CC1)N1CCOCC1
cytotoxicity at 70.5 h: 8.35%

Cc1csc(N2CCCN(C(=O)c3ccsc3)CC2)n1
cytotoxicity at 70.5 h: -12%

CCn1cnnc1CNC(=O)C1CCCN(Cc2cccc(F)c2)C1 (stereo not given)
cytotoxicity at 70.5 h: -14.4%

CC(C)CNC(=O)c1ccc(NC(=O)NC2CC2)cc1Cl
cytotoxicity at 70.5 h: -12.8%

Cn1ccnc1CCNC(=O)C1CCCN(Cc2cccc(F)c2)C1 (stereo not given)
cytotoxicity at 70.5 h: -7.53%

CC(C)C(C)(C#N)NC(=O)Cn1nnc(-c2cc3ccccc3o2)n1 (stereo not given)
cytotoxicity at 70.5 h: 18.2%

O=C(NS(=O)(=O)Cc1ccon1)c1ccsc1
cytotoxicity at 70.5 h: -3.39%

Cc1nsc(N2CCN(C(=O)Nc3ccc4[nH]ccc4c3)CC2)n1
cytotoxicity at 70.5 h: 1.81%

CN1CCOC(C(=O)Nc2ccc3[nH]nnc3c2)C1 (stereo not given)
cytotoxicity at 70.5 h: -3.75%

CC(NC(=O)N1CCSC(C)(C)C1)c1noc(-c2ccccc2)n1 (stereo not given)
cytotoxicity at 70.5 h: -0.307%

COc1ccccc1CC(=O)NCc1ccnc(NC2CC2)c1
cytotoxicity at 70.5 h: -0.149%

CCSc1cncc(NCc2ccc(N3CCNC(=O)C3)cc2)n1
cytotoxicity at 70.5 h: 3.68%

CCOCCC(=O)NCc1ccnc(NC2CC2)c1
cytotoxicity at 70.5 h: -3.85%

CCC(C)(C)NC(=O)c1ccc(-c2ccco2)[nH]c1=O
cytotoxicity at 70.5 h: 0.821%

CN1CCOC(C(=O)Nc2ccc3c(c2)nc(C2CC2)n3C)C1 (stereo not given)
cytotoxicity at 70.5 h: -3.17%

Cc1ccc(C)c(CN(C)Cc2nnc3ccccn23)c1
cytotoxicity at 70.5 h: 14.1%

Cc1nsc(N2CCCN(C(=O)c3ccc4[nH]ccc4c3)CC2)n1
cytotoxicity at 70.5 h: -3.86%

CC(Cn1cccn1)NS(=O)(=O)Cc1ccc(F)cc1 (stereo not given)
cytotoxicity at 70.5 h: 5.43%

Cc1ccc(O)c(C(=O)N2CCC(CN3CCCCCC3)CC2)c1
cytotoxicity at 70.5 h: -6.42%

CC(C)C(C)N1Cc2cccc(NCC(=O)N(C)C)c2C1 (stereo not given)
cytotoxicity at 70.5 h: -8.25%

Cn1ccc(CN2CCCN(c3nccs3)CC2)cc1=O
cytotoxicity at 70.5 h: -1.81%

Cc1csc(N2CCCN(Cc3ccn(C)c(=O)c3)CC2)n1
cytotoxicity at 70.5 h: -3.93%

COC(=O)c1cccc(S(=O)(=O)NC(=O)c2cccc(OC)c2OC)c1
cytotoxicity at 70.5 h: -6.86%

Cc1occc1C(=O)Nc1cc(N2CCNC2=O)ccc1Cl
cytotoxicity at 70.5 h: 6.66%

Cc1nc(CNC(=O)C(C)(C)c2ccc(F)cc2)no1
cytotoxicity at 70.5 h: 0.937%

COc1ccc(-c2nc(CC(=O)N(C)CCC#N)cs2)cc1OC
cytotoxicity at 70.5 h: 5.07%

CCC(=O)N1CCCN(C(=O)c2cc(C)cc(Br)c2O)CC1
cytotoxicity at 70.5 h: -1.86%

CC(=O)NC1CCN(c2ccc(C#N)cc2C(F)(F)F)CC1
cytotoxicity at 70.5 h: -1.95%

COCC(NC(=O)NCc1sc(C)nc1C)c1ccco1 (stereo not given)
cytotoxicity at 70.5 h: 7.86%

Cc1noc2ncc(S(=O)(=O)Nc3cc(CC(C)(C)C)[nH]n3)cc12
cytotoxicity at 70.5 h: 3.8%

CC(C)N1Cc2cccc(NCC(=O)N(C)C)c2C1
cytotoxicity at 70.5 h: -2.57%

CCC[C@@H](NC(N)=O)C(=O)N1CCc2c(Cl)cccc2C1
cytotoxicity at 70.5 h: -2.76%

CC(C)N1Cc2cccc(NCC(=O)N(C)C3CCCCC3)c2C1
cytotoxicity at 70.5 h: -0.0699%

CC(C)CCC(C)NC(=O)Nc1ccccn1 (stereo not given)
cytotoxicity at 70.5 h: -2.67%

CSc1ccc(OC(C)C(=O)Nc2cc(C)n[nH]2)cc1 (stereo not given)
cytotoxicity at 70.5 h: -1.12%

OC(CN1CCCCc2ccccc21)Cn1cccn1 (stereo not given)
cytotoxicity at 70.5 h: 1.14%

CN1CCOC(C(=O)N2CCC3(CCCCC3)C2)C1 (stereo not given)
cytotoxicity at 70.5 h: -5.38%

CN1CCOC(C(=O)N2CCOC3(CCCC3)C2)C1 (stereo not given)
cytotoxicity at 70.5 h: -1.85%

COCCN(C(=O)c1cc(-c2ccc(C)s2)[nH]n1)C1CC1
cytotoxicity at 70.5 h: -3.98%

NC(=O)CN(C(=O)Cc1ccc(C(F)(F)F)cc1)C1CCCC1
cytotoxicity at 70.5 h: -7.24%

CC(C)C(C(=O)NCc1ccccc1-n1cccn1)N(C)C (stereo not given)
cytotoxicity at 70.5 h: -7.79%

N#Cc1c(Cl)nsc1NCC1(c2ccccc2)CCC1
cytotoxicity at 70.5 h: 17.1%

NC(=O)CN(C(=O)Cc1cccc(C(F)(F)F)c1)C1CCCC1
cytotoxicity at 70.5 h: -2.84%

CS(=O)(=O)c1nnc(NC(=O)CCc2cccc(Cl)c2)[nH]1
cytotoxicity at 70.5 h: -7.49%

COc1ccc(CN(C)c2ncc(S(N)(=O)=O)s2)c(OC)c1
cytotoxicity at 70.5 h: -4.13%

CSC(CNS(C)(=O)=O)c1cccc(Cl)c1 (stereo not given)
cytotoxicity at 70.5 h: 24%

CSC(CNS(N)(=O)=O)c1cccc(Cl)c1 (stereo not given)
cytotoxicity at 70.5 h: -1.44%

CN(CCn1cccn1)S(=O)(=O)c1cccc(Cl)c1C#N
cytotoxicity at 70.5 h: -7.08%

CCCn1nc(-c2nc(COC)no2)ccc1=O
cytotoxicity at 70.5 h: -6.41%

CC(C)(CNc1ccc2ccc(F)cc2n1)NS(C)(=O)=O
cytotoxicity at 70.5 h: -7.19%

Cc1noc(COCC(=O)Nc2cc(C)c(Br)cn2)n1
cytotoxicity at 70.5 h: 4.04%

O=S(=O)(Cc1cccc2cccnc12)NC(CO)c1ccco1 (stereo not given)
cytotoxicity at 70.5 h: -9.35%

O=S(=O)(Cc1ccccc1F)NC(CO)c1ccco1 (stereo not given)
cytotoxicity at 70.5 h: 18.8%

Cc1n[nH]cc1CNC(C)c1cccc(N2CCCC2=O)c1 (stereo not given)
cytotoxicity at 70.5 h: 14.3%

CNCc1nc(-c2ccc3c(c2)OCO3)c[nH]1
cytotoxicity at 70.5 h: -13.6%
